Key:
Assay in all cases: normalised response (% of control), CellTiter-Glo; higher = more viable cells (100 = DMSO, 0 = benzethonium chloride kill control)
Settings in all cases: incubation time: 72 h
[1] = system: BT-474
Outline: (§1)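 Breast cancer cell lines (20 µl suspension) were seeded into 384-well plates holding compound at 5 concentrations in 10-fold steps over a compound-specific 10,000-fold range, then incubated 72 h. CellTox Green fluorescence (485/520 nm) was read first, then CellTiter-Glo luminescence after 10 min at room temperature. Each plate was normalised to 0.1 % DMSO (100) and a positive kill control (0). Each value is the normalised signal at a single concentration of the series.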

[2] = system: BT-549
Outline: as §1

[3] = system: CAL-120
Outline: as §1

[4] = system: CAL-148
Outline: as §1

[5] = system: CAL-51
Outline: as §1

[6] = system: CAL-85-1
Outline: as §1

[7] = system: DU-4475
Outline: as §1

[8] = system: HCC1143
Outline: as §1

[9] = system: HCC1599
Outline: as §1

[10] = system: HCC1937
Outline: as §1

[11] = system: HDQ-P1
Outline: as §1

[12] = system: Hs578T
Outline: as §1

[13] = system: MCF-10A
Outline: as §1

[14] = system: MDA-MB-231
Outline: as §1

[15] = system: MDA-MB-436
Outline: as §1

[16] = system: MDA-MB-453
Outline: as §1

[17] = system: MDA-MB-468
Outline: as §1

[18] = system: MFM-223
Outline: as §1

[19] = system: SK-BR-3
Outline: as §1

SMILES	normalised response [1]	normalised response [2]	normalised response [3]	normalised response [4]	normalised response [5]	normalised response [6]	normalised response [7]	normalised response [8]	normalised response [9]	normalised response [10]	normalised response [11]	normalised response [12]	normalised response [13]	normalised response [14]	normalised response [15]	normalised response [16]	normalised response [17]	normalised response [18]	normalised response [19]
Cc1ccc(-c2cc(C(F)(F)F)nn2-c2ccc(S(N)(=O)=O)cc2)cc1 [Celecoxib] (1 nM)	96.5%	104%	96.8%	102%	88.1%	104%	95.5%	96.8%	93.6%	95.9%	97.4%	105%	98.8%	98%	95.1%	111%	102%	102%	102%
O=C(/C=C/c1cccnc1)NCCCCC1CCN(C(=O)c2ccccc2)CC1 [Daporinad] (0.1 nM)	106%	98.4%	101%	101%	112%	101%	103%	94%	108%	101%	98.4%	96.3%	102%	101%	101%	102%	96.9%	109%	108%
O=C(/C=C/c1cccnc1)NCCCCC1CCN(C(=O)c2ccccc2)CC1 [Daporinad] (1 nM)	106%	98%	105%	101%	114%	103%	105%	106%	106%	101%	98.1%	97.1%	106%	101%	105%	88.8%	103%	87.2%	113%
Nc1ncn([C@H]2C[C@H](O)[C@@H](CO)O2)c(=O)n1 [Decitabine] (1 nM)	99.1%	90%	97%	92.1%	76.5%	99%	102%	90.8%	99.7%	101%	98.2%	94.3%	92.4%	104%	96.5%	110%	102%	96.4%	96.2%
Nc1ccccc1NC(=O)c1ccc(CNC(=O)OCc2cccnc2)cc1 [Entinostat] (1 nM)	92.8%	103%	99.2%	98.2%	85.2%	106%	99.7%	103%	95.6%	99.2%	102%	98.8%	98.1%	102%	102%	114%	106%	97.2%	102%

From the supplement of paper PMC4862054
